# Data as given in patent US7854946B1, “Anti-inflammatory and anti-HIV compositions and methods of use” (Iowa State University Research Foundation, Inc., priority 2007, dated 2010).
# Assays:
# Format in all cases: cell-based, mouse
# RAW264.7 macrophages = assay: CellTiter96 cytotoxicity assay in RAW264.7 macrophages
# Protocol: CellTiter96® Aqueous One Solution cell proliferation assay (Promega Corporation, Madison, Wis.) was used as previously described in Schmitt et al. with an 8-hour treatment incubation instead of 24-hour treatment incubation to parallel the anti-inflammatory studies (Schmitt, L. A., et al., (2006)). Following the 8 hour incubation, treatment solutions were removed and fresh media and Celltiter96® dye were added for 3 hours and 15 minutes (Schmitt, L. A., et al., (2006)). The metabolized dye solutions were transferred to 96-well plates for absorbance measurement at 490 nm. The number of viable cells for each treatment was compared to the media+DMSO solvent control. Treatment with 20 μM hypericin was used as a positive control. Data is shown as mean percent reduction in LPS-induced PGE2 levels±the standard error as compared to the media+LPS+DMSO control. Statistical significance was determined by an F-protected two-way ANOVA followed by a Tukey-Kramer test for multiple comparisons (Snedecor, G. W., Cochran, W. G., Eds. (1989). Statistical Methods, 8th ed. University Press: Ames, Iowa). For cytotoxicity, data are represented as mean % cytotoxicity±standard error as compared to the media+DMSO control. Statistical significance was determined by an F-protected two-way ANOVA followed by a Dunnett-Hsu test for multiple comparisons (Dunnett C. W. (1955). “A multiple comparison procedure for comparing several treatments with a control.” Journal of the American Statistical Association. 50:1096-1121).
# [1] = tested on: PGE2 production in LPS-induced macrophages; assay: PGE2 assay in LPS-induced RAW264.7 macrophages; conditions: pure compound in cell media, 1 μg/ml LPS, 8 hours
# Protocol: RAW264.7 macrophages were purchased from the American Type Culture Collections (ATCC; […] Cells were plated at a density of 1.0×10^5 cells/well in 24-well cell culture plates and allowed to attach overnight. […] Louis, Mo.) and solvent alone, dimethylsulfoxide (DMSO) (Sigma, St. Louis, Mo.), or H. gentianoides extract or fraction simultaneously for 8 hours. Cell supernatants were collected on ice, and stored in a −70° C. freezer for use in the PGE2 assay. […] Four controls were included in each treatment: media alone, media and DMSO, media and LPS, and media and LPS and DMSO. In addition, 10 μM quercetin was used as a positive control. Since H. perforatum contains light-activated compounds, the H. gentianoides extract was tested in both light-activated and dark conditions initially to determine if the activity was dependent on light activation. […] The supernatant samples were assayed with a Prostaglandin E2 EIA kit (GE Biosciences, Piscataway, N.J.) according to manufacturer's instructions. […] Data is shown as mean percent reduction in LPS-induced PGE2 levels±the standard error as compared to the media+LPS+DMSO control. Statistical significance was determined by an F-protected two-way ANOVA followed by a Tukey-Kramer test for multiple comparisons (Snedecor, G. W., Cochran, W. G., Eds. (1989). Statistical Methods, 8th ed. University Press: Ames, Iowa). For cytotoxicity, data are represented as mean % cytotoxicity±standard error as compared to the media+DMSO control. Statistical significance was determined by an F-protected two-way ANOVA followed by a Dunnett-Hsu test for multiple comparisons (Dunnett C. W. (1955). “A multiple comparison procedure for comparing several treatments with a control.” Journal of the American Statistical Association. 50:1096-1121). […] The ability of H. gentianoides extracts to reduce the inflammatory response was assessed by quantifying PGE2 production in LPS-induced macrophages. […]
# cyclooxygenase-2 = assay: Western blot of COX-2 protein in LPS-induced RAW 264.7 macrophages; conditions: 8 hour treatment, dose not given
# Protocol: FIG. 9. […] After an 8 hour treatment with lipopolysaccharide (LPS) and H. gentianoides fractions, a protein extraction was performed on the RAW 264.7 macrophages. Separation of the proteins was carried out on a discontinuous (4% stacking, 10% resolving) sodium dodecyl sulfate-polyacrylamide (30% acrylamide/bis solution) (BioRad; Hercules, Calif.) gel, followed by transfer to a PVDF membrane (GE Healthcare; Piscataway, N.J.) at 100V for 2.5 hours. COX-2 rabbit polyclonal antibody (Santa Cruz Biotechnology, Santa Cruz, Calif.) was diluted 1:1000 in 5% milk Tris-buffered saline with 0.5% Tween-20 (TBS-T). The secondary antibody (goat, anti-rabbit IgG, HRP conjugated, Santa Cruz Biotechnology; Santa Cruz, Calif.) was diluted 1:1000 in 5% milk in TBS-T. Detection was visualized on blue sensitive autoradiographic film (Marsh Bioproducts; Rochester, N.Y.) with a chemiluminescence (ECLplus) detection kit (GE Healthcare; Piscataway, N.J.).
# After an 8 hour treatment with lipopolysaccharide (LPS) and H. gentianoides fractions, RAW 264.7 cells were rinsed twice with ice cold 1× phosphate buffered saline (PBS). […] The protein concentration in each lysate was determined using the bicinchonic acid and copper sulfate protein assay (Sigma; St. Louis, Mo.). […]
# cyclooxygenase-1 = assay: Western blot of COX-1 protein in LPS-induced RAW 264.7 macrophages; conditions: 8 hour treatment
Structure (SMILES),cytotoxicity (RAW264.7 macrophages; dose of 100 μM),lowest tested dose with significant reduction of PGE2 concentrations [1] [µM],"doses at which significant cytotoxicity stops (RAW264.7 macrophages; RAW264.7 macrophages, tested 0.5-100 μM) [µM]",cyclooxygenase-2 enzyme (cyclooxygenase-2),cyclooxygenase-1 protein (cyclooxygenase-1),tested dose from which cytotoxicity is significant (RAW264.7 macrophages; RAW264.7 macrophages) [µM]
CC(C)=CCc1c(O)c(CC2=C(O)C(C)=C(O)C(CC=C(C)C)(C(=O)C(C)C)C2=O)c(O)c(C(=O)C(C)C)c1O (centres unmarked) [hyperbrasilol C],no significant cytotoxicity,10,,,,
Cc1c(O)c(CC2=C(O)C(C)(C)C(=O)C(C(=O)C(C)C)=C2O)c(O)c(C(=O)C(C)C)c1O [saroaspidin A],,2,≤ 10,reduces,does not appear to be affected,
CC(C)=CCc1c(O)c(CC2=C(O)C(C)(C)C(=O)C(C(=O)C(C)C)=C2O)c(O)c(C(=O)C(C)C)c1O [uliginosin A],,10,,,,100
